Ten compounds from ChEMBL document CHEMBL1201862, “PubChem BioAssay data set” (2004) can be followed below.

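Test compounds were applied to cells in 96-well plates for 48 hours at 5 doses. Abbreviation: GI50, concentration required for 50% inhibition of growth.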 The source made the active and inactive calls. Cut-off read from the data, not from the text of the source: active = GI50 up to about 1.1 µM and inactive = higher. Where only a bound is given, the exact number is not on record here.

Among the test systems are TK-10; HCT-116; COLO 205; SK-MEL-28; Hs-578T; MDA-N; NCI-H23; OVCAR-3; SR; U-251; K562; Malme-3M; ACHN; KM12; SK-MEL-5; BT-549; LOX IMVI; SNB-19; MDA-MB-231; MCF7.
Common to all, as to experiment: growth of human tumour cells (NCI), 48 h

Take `Oc1cccnc1CN1CCCCC1`: the GI50 in the test on TK-10, in the test with HCT-116, with COLO 205, in the test with SK-MEL-28, in the test with Hs-578T and in the test with MDA-N was > 100 µM (inactive) each time. The GI50 with NCI-H23, in the test on OVCAR-3, in the test with SR, in the test on U-251, in the test with K562 and with Malme-3M was > 100 µM (inactive) each time. Moreover, the GI50 in the test on ACHN, in the test with KM12, in the test with SK-MEL-5, in the test on BT-549, in the test on LOX IMVI and with SNB-19 was > 100 µM (inactive) each time. The GI50 with MDA-MB-231 and in the test on MCF7 was > 100 µM (inactive) throughout.

As for `O=[N+]([O-])c1ccc(C[S+]([O-])Cc2ccccc2)cc1` (stereo not given), the GI50 in the test on TK-10, in the test on HCT-116, in the test with COLO 205, in the test on SK-MEL-28, in the test on Hs-578T and with MDA-N was > 100 µM (inactive) each time. Further, the GI50 in the test with NCI-H23, with OVCAR-3, in the test with SR, with U-251, with K562 and in the test on Malme-3M was > 100 µM (inactive) throughout. In addition, the GI50 with ACHN, in the test on KM12, in the test on SK-MEL-5, with BT-549, in the test on LOX IMVI and in the test with SNB-19 was > 100 µM (inactive) each time. Further, the GI50 in the test with MDA-MB-231 and in the test on MCF7 was > 100 µM (inactive) in each case.

For the compound `COc1ccccc1NC(=O)CC(=O)N1N=C(C)C(/N=N/c2ccc(C(=O)O)cc2)C1=O` (stereo not given), the GI50 with TK-10, in the test on HCT-116, in the test with COLO 205, with SK-MEL-28, in the test on Hs-578T and in the test on MDA-N was > 100 µM (inactive) each time. Moreover, the GI50 with NCI-H23, with OVCAR-3, with SR, in the test on U-251, with K562 and in the test on Malme-3M was > 100 µM (inactive) throughout. Also, the GI50 in the test with ACHN, with KM12, in the test with SK-MEL-5, with BT-549, in the test with LOX IMVI and with SNB-19 was > 100 µM (inactive) throughout. Also, the GI50 in the test on MDA-MB-231 and with MCF7 was > 100 µM (inactive) each time.

For `CCC(c1ccc2cc(O)ccc2c1)C(C)(C)C(=O)O` (stereo not given), the GI50 with TK-10, with HCT-116, in the test on COLO 205, with SK-MEL-28, with Hs-578T and with MDA-N was > 100 µM (inactive) each time. Further, the GI50 with NCI-H23, with OVCAR-3, in the test on SR, in the test on U-251, with K562 and in the test on Malme-3M was > 100 µM (inactive) each time. Besides, the GI50 in the test on ACHN, in the test on KM12, in the test on SK-MEL-5, in the test on BT-549, in the test with LOX IMVI and in the test with SNB-19 was > 100 µM (inactive) each time. Moreover, the GI50 in the test with MDA-MB-231 and with MCF7 was > 100 µM (inactive) throughout.

As to `O=C(N(O)c1ccccc1Cl)C(O)(c1ccccc1)c1ccccc1`, the GI50 with TK-10 was 62.4 µM (inactive); in the test with HCT-116, > 100 µM (inactive); in the test with COLO 205 it was > 100 µM (inactive); in the test with SK-MEL-28 it was 93.3 µM (inactive); in the test with Hs-578T, 42.5 µM (inactive); with MDA-N it was 67.1 µM (inactive). For the same compound, the GI50 in the test with NCI-H23 is > 100 µM (inactive); in the test with OVCAR-3 it was 43.5 µM (inactive); in the test with SR, 18.1 µM (inactive); with U-251 it was 40.6 µM (inactive); with K562 it was 24.4 µM (inactive); in the test on Malme-3M, > 100 µM (inactive). For the same compound, the GI50 in the test with ACHN is 52.8 µM (inactive); in the test on KM12, 36.1 µM (inactive); in the test with SK-MEL-5, 50.6 µM (inactive); in the test with BT-549, 60.1 µM (inactive); in the test on LOX IMVI, 49.3 µM (inactive); in the test with SNB-19, > 100 µM (inactive). Also, the GI50 with MDA-MB-231 is > 100 µM (inactive); in the test on MCF7, 56.8 µM (inactive).

Regarding `CC[C@@]1(OC(=O)C(N)CCCCN)C(=O)OCc2c1cc1n(c2=O)Cc2cc3ccccc3nc2-1` (stereo not given in full), the GI50 in the test on TK-10 is 2.55 µM (inactive); with HCT-116, 0.0415 µM (active); with COLO 205, 0.389 µM (active); in the test with SK-MEL-28, 0.442 µM (active); in the test on Hs-578T, 4.52 µM (inactive); in the test on MDA-N, 0.167 µM (active). Moreover, the GI50 in the test on NCI-H23 is 0.0219 µM (active); in the test with OVCAR-3, 0.352 µM (active); in the test with SR it was < 0.01 µM (active); in the test with U-251 it was 0.0161 µM (active); in the test on K562 it was 0.103 µM (active); with Malme-3M it was 0.196 µM (active). The GI50 is 0.0135 µM (active) in the test with ACHN; 0.35 µM (active) with KM12; 0.0377 µM (active) in the test on SK-MEL-5; 0.218 µM (active) with BT-549; 0.0171 µM (active) in the test on LOX IMVI; 0.0176 µM (active) with SNB-19. Besides, the GI50 was 1.53 µM (inactive) in the test with MDA-MB-231 and 0.021 µM (active) in the test on MCF7.

In the case of `CC1=NN2C(=N)/C(=C/c3ccccc3)C(=O)N=C2S1`, the GI50 with TK-10, in the test on HCT-116, with COLO 205, in the test with SK-MEL-28, in the test on Hs-578T and in the test with MDA-N was > 100 µM (inactive) each time. Also, the GI50 with NCI-H23, in the test with OVCAR-3, in the test with SR, in the test on U-251, in the test with K562 and with Malme-3M was > 100 µM (inactive) throughout. The GI50 with ACHN, in the test with KM12, in the test with SK-MEL-5, in the test on BT-549, in the test with LOX IMVI and in the test with SNB-19 was > 100 µM (inactive) throughout. The GI50 in the test with MDA-MB-231 is > 100 µM (inactive); in the test with MCF7, 0.867 µM (active).

With `[N-]=[N+]=NC1C(O)C(CO)OC1n1cnc2c(N)ncnc21` (stereo not given), the GI50 in the test on TK-10 was > 100 µM (inactive); in the test with HCT-116 it was 42.3 µM (inactive); in the test with COLO 205 it was > 100 µM (inactive); with SK-MEL-28 it was > 100 µM (inactive); with Hs-578T, > 100 µM (inactive); in the test on MDA-N, 71.3 µM (inactive). Further, the GI50 in the test with NCI-H23 was 30.5 µM (inactive); with OVCAR-3, > 100 µM (inactive); in the test on SR, 1.67 µM (inactive); in the test on U-251, > 100 µM (inactive); with K562, 19.3 µM (inactive); in the test with Malme-3M, > 100 µM (inactive). The GI50 was 5.28 µM (inactive) with ACHN; 74.3 µM (inactive) in the test with KM12; > 100 µM (inactive) with SK-MEL-5; 54.8 µM (inactive) in the test on BT-549; 24.7 µM (inactive) in the test with LOX IMVI; 59.4 µM (inactive) in the test on SNB-19. For the same compound, the GI50 in the test on MDA-MB-231 is > 100 µM (inactive); in the test on MCF7, 5.21 µM (inactive).

Turning to `Cc1ccc(NCCN(C)C)c2c(=O)c3cc(O)ccc3oc12`, the GI50 was 14.6 µM (inactive) in the test with TK-10; 4.86 µM (inactive) in the test on HCT-116; 10.8 µM (inactive) with COLO 205; 14.8 µM (inactive) in the test on SK-MEL-28; 6.41 µM (inactive) in the test with Hs-578T; 10.7 µM (inactive) in the test on MDA-N. The GI50 in the test on NCI-H23 is 12.6 µM (inactive); in the test with OVCAR-3, 16.5 µM (inactive); with SR, 0.083 µM (active); in the test with U-251, 8.2 µM (inactive); with K562, 4.09 µM (inactive); with Malme-3M, 13.9 µM (inactive). The GI50 in the test on ACHN is 4.62 µM (inactive); in the test on KM12, 11.2 µM (inactive); in the test on SK-MEL-5 it was 11.6 µM (inactive); in the test on BT-549 it was 16.7 µM (inactive); in the test on LOX IMVI, 9.53 µM (inactive); in the test on SNB-19, 11.3 µM (inactive). The GI50 with MDA-MB-231 was 9.04 µM (inactive); in the test on MCF7 it was 5.38 µM (inactive).

Consider `Nc1ccn([C@@H]2C=C(CO)[C@@H](O)[C@H]2O)c(=O)n1`, for which the GI50 in the test with TK-10 was 1.05 µM (active); with HCT-116, 0.05 µM (active); in the test with COLO 205, 0.198 µM (active); in the test on SK-MEL-28, 0.298 µM (active); with Hs-578T, 2.24 µM (inactive); in the test with MDA-N, 0.0353 µM (active). Also, the GI50 in the test on NCI-H23 is 0.169 µM (active); with OVCAR-3 it was 2.2 µM (inactive); in the test with SR it was 0.00946 µM (active); in the test on U-251, 0.321 µM (active); in the test with K562, 0.0681 µM (active); in the test with Malme-3M, 1.86 µM (inactive). Also, the GI50 is 0.0559 µM (active) with ACHN; 0.143 µM (active) in the test on KM12; 1.06 µM (active) in the test with SK-MEL-5; 2.06 µM (inactive) in the test with BT-549; 0.0667 µM (active) in the test on LOX IMVI; 0.244 µM (active) with SNB-19. Further, the GI50 in the test on MDA-MB-231 is 0.467 µM (active); with MCF7, 0.05 µM (active).
